Measurements: article PMC6383986, “Fragment-Based Covalent Ligand Screening Enables Rapid Discovery of Inhibitors for the RBR E3 Ubiquitin Ligase HOIP” (Journal of the American Chemical Society, 2019)

Tested on: E1, UbcH5c, UbcH7, HOIL-1L, RNF144A, HHARI, TRIAD3A RBR domains, NEDD4L, E6AP, OTULIN, CYLD-1
Assay: LC-MS-based enzyme counter screen
Type: binding
Conditions: 10-fold stoichiometric excess, 24 h incubation
Experimental: 0.1% formic acid in water. The samples were analyzed on a Q Exactive MS (Thermo Fisher) coupled to an Easy-nLC chromatographic system (Thermo Fisher) with a nano ESI source (Thermo Fisher). Each sample (2 µL) was injected and trapped on a C18 Acclaim pepMap 100 enrichment column (75 µm id × 2 cm, 3 µm nanoviper, Thermo Fisher). The samples were transferred to a C18 Acclaim PepMap RSLC analytical column (75 µm id × 15 cm, 2 µm, Thermo Fisher) at 300 nL/min. Mobile phase A (0.1% Formic acid in water, v/v); mobile phase B (0.1% […]
min (70-95% B), 56-61 min (95% B). The nanospray ionisation source was operated in the positive mode with spray voltage set at 2 kV, and heated capillary at 250 °C. The Q Exactive was operated in the data dependent mode and the top 15 most intense ions were subjected to HCD fragmentation with normalised collision energy set at 26%. The MS1 scans were performed at a resolution of 70 000 from 400-1600 m/z, automatic gain control (AGC) value 3 e6, maximum injection time 100 ms. […]
Compounds (1) and (5) were screened against E1, the E2s UbcH5c and UbcH7, the RBR domains of the E3 ligases HOIP, HOIL-1L, RNF144A, HHARI and TRIAD3A, the HECT E3 ligases NEDD4L and E6AP, and the DUBs OTULIN and CYLD-1. […] The samples were analyzed after 0.5 and 24 h incubation. […]

## COC(=O)/C=C/CNC(=O)c1cc2c([nH]c1=O)CCC2 [Compound 5]
  labeling of all other proteins screened: < 40%
